The format of series [1] is physicochemical. From the text:
(e) Thin layer chromatography: Three ninhydrin-positive spots, of which, in each case, only one spot corresponds to the substances which is active in the bioautogram, are found in all the solvent systems used which contain acetic acid. This fact could be ascribed to the lability of the antibiotic in acetic acid solution. In neutral solvent systems, only one ninhydrin-positive spot is found in each case.

Series [2] deals with Megoura viciae (vetch aphid). Particulars: in vivo. The method, then: The tests with Megoura viciae were carried out on potted field bean plants (Vicia faba, variety "Saxa") under laboratory conditions. The test animals were transferred to the test plants only after the plants had been treated and the spray coating had dried on. The tests were as a rule evaluated 5 days after the start of the test, calculated from the time at which the test animals were introduced.

Regarding Nikkomycin, the “stability in acetic acid solution” value in series [1] is listed as “lability”. For the same substance, the “mortality of the larvae which had developed normally during the ecdysis stages” value in series [2] is listed as “more than 90%”.
